The subject of data set [1] is recombinant NL4-3 virus (Renilla luciferase reporter) in MT-2 cells. Put plainly: HIV cell culture assay (antiviral activity, luciferase readout in infected MT-2 cells). In kind it is cell-based. Conditions: NL43. The procedure: HIV cell culture assay—MT-2 cells, 293T cells and the proviral DNA clone of NL4-3 virus were obtained from the NIH AIDS Research and Reference Reagent Program. MT-2 cells were propagated in RPMI 1640 media supplemented with 10% heat inactivated fetal bovine serum (FBS), […]. The 293T cells were propagated in DMEM media supplemented with 10% heat inactivated FBS, […]. A recombinant NL4-3 proviral clone, in which a section of the nef gene was replaced with the Renilla luciferase gene, was used to make the reference virus used in these studies. The recombinant virus was prepared through transfection of the recombinant NL4-3 proviral clone into 293T cells using Transit-293 Transfection Reagent from Mirus Bio LLC (Madison, Wis.). Supernatent was harvested after 2-3 days and the amount of virus present was titered in MT-2 cells using luciferase enzyme activity as a marker by measuring luciferase enzyme activity. Luciferase was quantitated using the EnduRen Live Cell Substrate from Promega (Madison, Wis.). Antiviral activities of compounds toward the recombinant virus were quantified by measuring luciferase activity in MT-2 cells infected for 4-5 days with the recombinant virus in the presence of serial dilutions of the compound.
The 50% effective concentration (EC50) was calculated by using the exponential form of the median effect equation where (Fa)=1/[1+(EC50/drug conc.)m] (Johnson V A, Byington RT. Infectivity Assay. In Techniques in HIV Research, ed. Aldovini A, Walker B D. 71-76. New York: Stockton Press. 1990). The 50% inhibitory concentration (EC50) was calculated by using the exponential form of the median effect equation where percent inhibition=1/[1+(EC50/drug concentration)m], where m is a parameter that reflects the slope of the concentration-response curve.

A short description of data set [2]: Compound cytotoxicity, XTT-based colorimetric assay. It counts as cell-based. Conditions: human; uninfected MT2 cells, day 4, XTT; read-out: CC50. On the procedure:
Compound cytotoxicity and the corresponding CC50 values were determined using the same protocol as described in the antiviral assay except that uninfected cells were used. Cytotoxicity was assessed on day 4 in uninfected MT2 cells by using a XTT (2,3-bis [2-Methoxy-4-nitro-5-sulfophenyl]-2H-tetrazolium-5-carboxyanilide inner salt)-based colorimetric assay (Sigma-Aldrich, St Louis, Mo.).
(Tetrazolium dyes change colour on reduction, which living cells bring about.)

Broadly, the EC50 is the concentration that produces a half-maximal response. For orientation: CC50 means the concentration at which the toxic effect on the cells reaches its halfway point. Turning to `C[C@@H]1CN(c2ccc3c(=O)n(-c4ccc(Cl)c5c(NS(C)(=O)=O)nn(C)c45)c([C@H](Cc4cc(F)cc(F)c4)NC(=O)Cn4ccc(C5CC5)n4)nc3n2)C[C@H](C)O1` (atropisomer, axis not shown; (P)) [Example 16, N—((S)-1-((3P)-3-(4-chloro-1-methyl-3-(methylsulfonamido)-1H-indazol-7-yl)-7-((2S,6R)-2,6-dimethylmorpholino)-4-oxo-3,4-dihydropyrido[2,3-d]pyrimidin-2-yl)-2-(3,5-difluorophenyl)ethyl)-2-(3-cyclopropyl-1H-pyrazol-1-yl)acetamide], the EC50 in data set [1] was found to be 0.2 nM. For the same compound, the half-maximal cytotoxic concentration (CC50) at 4 days in data set [2] is over 500 nM.

With `C[C@@H]1CN(c2ccc3c(=O)n(-c4ccc(Cl)c5c(NS(C)(=O)=O)nn(CC(F)(F)F)c45)c([C@H](Cc4cc(F)cc(F)c4)NC(=O)Cn4ccc(C5CC5)n4)nc3n2)C[C@H](C)O1` (atropisomer, axis not shown; (P)) [Example 17, N—((S)-1-((3P)-3-(4-chloro-3-(methylsulfonamido)-1-(2,2,2-trifluoroethyl)-1H-indazol-7-yl)-7-((2S,6R)-2,6-dimethylmorpholino)-4-oxo-3,4-dihydropyrido[2,3-d]pyrimidin-2-yl)-2-(3,5-difluorophenyl)ethyl)-2-(3-cyclopropyl-1H-pyrazol-1-yl)acetamide], the concentration giving a half-maximal response (EC50) in data set [1] was found to be 0.24 nM. The CC50 at 4 days in data set [2] is over 500 nM.

Consider `CC(C)n1ccc(CC(=O)N[C@@H](Cc2cc(F)cc(F)c2)c2nc3nc(N4C[C@@H](C)O[C@@H](C)C4)ccc3c(=O)n2-c2ccc(Cl)c3c(NS(C)(=O)=O)nn(C)c23)n1` (atropisomer, axis not shown; (P)) [Example 18, N—((S)-1-((3P)-3-(4-chloro-1-methyl-3-(methylsulfonamido)-1H-indazol-7-yl)-7-((2S,6R)-2,6-dimethylmorpholino)-4-oxo-3,4-dihydropyrido[2,3-d]pyrimidin-2-yl)-2-(3,5-difluorophenyl)ethyl)-2-(1-isopropyl-1H-pyrazol-3-yl)acetamide], for which, in data set [1], the EC50 stood at 0.16 nM. Also, the CC50 at 4 days in data set [2] is over 100 nM.

`Cn1nc(NS(C)(=O)=O)c2c(Cl)ccc(-n3c([C@H](Cc4cc(F)cc(F)c4)NC(=O)Cn4nc(C(F)F)c5c4C(F)(F)[C@@H]4C[C@H]54)nc4nc(N5CCCOCC5)ccc4c3=O)c21` (atropisomer, axis not shown; (P)) [Example 22, N—((S)-1-((3P)-3-(4-chloro-1-methyl-3-(methylsulfonamido)-1H-indazol-7-yl)-7-(1,4-oxazepan-4-yl)-4-oxo-3,4-dihydropyrido[2,3-d]pyrimidin-2-yl)-2-(3,5-difluorophenyl)ethyl)-2-((3bS,4aR)-3-(difluoromethyl)-5,5-difluoro-3b,4,4a,5-tetrahydro-1H-cyclopropa[3,4]cyclopenta[1,2-c]pyrazol-1-yl)acetamide]: in data set [1], the half-maximal effective concentration (EC50) was found to be 0.052 nM. In data set [2], the cytotoxic concentration (CC50) at 4 days was over 100 nM.

Turning to `Cn1nc(NS(C)(=O)=O)c2c(Cl)ccc(-n3c([C@H](Cc4cc(F)cc(F)c4)NC(=O)Cn4nc(C(F)F)c5c4C(F)(F)[C@@H]4C[C@H]54)nc4nc(N5CCOCC5)ccc4c3=O)c21` (atropisomer, axis not shown; (P)) [Example 23, N—((S)-1-((3P)-3-(4-chloro-1-methyl-3-(methylsulfonamido)-1H-indazol-7-yl)-7-morpholino-4-oxo-3,4-dihydropyrido[2,3-d]pyrimidin-2-yl)-2-(3,5-difluorophenyl)ethyl)-2-((3bS,4aR)-3-(difluoromethyl)-5,5-difluoro-3b,4,4a,5-tetrahydro-1H-cyclopropa[3,4]cyclopenta[1,2-c]pyrazol-1-yl)acetamide], the EC50 in data set [1] worked out at 0.058 nM. The half-maximal cytotoxic concentration (CC50) at 4 days in data set [2] was over 100 nM.

Take `Cn1nc(NS(C)(=O)=O)c2c(Cl)ccc(-n3c([C@H](Cc4cc(F)cc(F)c4)NC(=O)Cn4nc(C(F)F)c5c4C(F)(F)[C@@H]4C[C@H]54)nc4nc(NCCC(C)(C)F)ccc4c3=O)c21` (atropisomer, axis not shown; (P)) [Example 24, N—((S)-1-((3P)-3-(4-chloro-1-methyl-3-(methylsulfonamido)-1H-indazol-7-yl)-7-((3-fluoro-3-methylbutyl)amino)-4-oxo-3,4-dihydropyrido[2,3-d]pyrimidin-2-yl)-2-(3,5-difluorophenyl)ethyl)-2-((3bS,4aR)-3-(difluoromethyl)-5,5-difluoro-3b,4,4a,5-tetrahydro-1H-cyclopropa[3,4]cyclopenta[1,2-c]pyrazol-1-yl)acetamide]: the concentration giving a half-maximal response (EC50) in data set [1] turned out to be 0.04 nM. In addition, the CC50 at 4 days in data set [2] is over 100 nM.

For `Cn1nc(NS(C)(=O)=O)c2c(Cl)ccc(-n3c([C@H](Cc4cc(F)cc(F)c4)NC(=O)Cn4nc(C(F)F)c5c4C(F)(F)[C@@H]4C[C@H]54)nc4nc(NCCC(C)(F)F)ccc4c3=O)c21` (atropisomer, axis not shown; (P)) [Example 25, N—((S)-1-((3P)-3-(4-chloro-1-methyl-3-(methylsulfonamido)-1H-indazol-7-yl)-7-((3,3-difluorobutyl)amino)-4-oxo-3,4-dihydropyrido[2,3-d]pyrimidin-2-yl)-2-(3,5-difluorophenyl)ethyl)-2-((3bS,4aR)-3-(difluoromethyl)-5,5-difluoro-3b,4,4a,5-tetrahydro-1H-cyclopropa[3,4]cyclopenta[1,2-c]pyrazol-1-yl)acetamide], the EC50 in data set [1] came to 0.037 nM. Also, in data set [2], the CC50 at 4 days was over 100 nM.

Turning to `Cn1nc(NS(C)(=O)=O)c2c(Cl)ccc(-n3c([C@H](Cc4cc(F)cc(F)c4)NC(=O)Cn4nc(C(F)F)c5c4C(F)(F)[C@@H]4C[C@H]54)nc4nc(N5CC(C)(C)OC(C)(C)C5)ccc4c3=O)c21` (atropisomer, axis not shown; (P)) [Example 26, N—((S)-1-((3P)-3-(4-chloro-1-methyl-3-(methylsulfonamido)-1H-indazol-7-yl)-4-oxo-7-(2,2,6,6-tetramethylmorpholino)-3,4-dihydropyrido[2,3-d]pyrimidin-2-yl)-2-(3,5-difluorophenyl)ethyl)-2-((3bS,4aR)-3-(difluoromethyl)-5,5-difluoro-3b,4,4a,5-tetrahydro-1H-cyclopropa[3,4]cyclopenta[1,2-c]pyrazol-1-yl)acetamide], the concentration for a half-maximal effect (EC50) in data set [1] amounted to 0.023 nM. Also, the 50% cytotoxic concentration (CC50) at 4 days in data set [2] was over 100 nM.

Consider `Cn1nc(NS(C)(=O)=O)c2c(Cl)ccc(-n3c([C@H](Cc4cc(F)cc(F)c4)NC(=O)Cn4nc(C(F)F)c5c4C(F)(F)[C@@H]4C[C@H]54)nc4nc(N5CCOC(C)(C)C5)ccc4c3=O)c21` (atropisomer, axis not shown; (P)) [Example 29, N—((S)-1-((3P)-3-(4-chloro-1-methyl-3-(methylsulfonamido)-1H-indazol-7-yl)-7-(2,2-dimethylmorpholino)-4-oxo-3,4-dihydropyrido[2,3-d]pyrimidin-2-yl)-2-(3,5-difluorophenyl)ethyl)-2-((3bS,4aR)-3-(difluoromethyl)-5,5-difluoro-3b,4,4a,5-tetrahydro-1H-cyclopropa[3,4]cyclopenta[1,2-c]pyrazol-1-yl)acetamide], for which the concentration for a half-maximal effect (EC50) in data set [1] stood at 0.035 nM. Also, in data set [2], the CC50 at 4 days is over 100 nM.

As to `CN(CCC(F)(F)F)c1ccc2c(=O)n(-c3ccc(Cl)c4c(NS(C)(=O)=O)nn(C)c34)c([C@H](Cc3cc(F)cc(F)c3)NC(=O)Cn3nc(C(F)F)c4c3C(F)(F)[C@@H]3C[C@H]43)nc2n1` (atropisomer, axis not shown; (P)) [Example 30, N—((S)-1-((3P)-3-(4-chloro-1-methyl-3-(methylsulfonamido)-1H-indazol-7-yl)-7-(methyl(3,3,3-trifluoropropyl)amino)-4-oxo-3,4-dihydropyrido[2,3-d]pyrimidin-2-yl)-2-(3,5-difluorophenyl)ethyl)-2-((3bS,4aR)-3-(difluoromethyl)-5,5-difluoro-3b,4,4a,5-tetrahydro-1H-cyclopropa[3,4]cyclopenta[1,2-c]pyrazol-1-yl)acetamide], the EC50 in data set [1] came out at 0.032 nM. In data set [2], the CC50 at 4 days was over 100 nM.

In the case of `Cn1nc(NS(C)(=O)=O)c2c(Cl)ccc(-n3c([C@H](Cc4cc(F)cc(F)c4)NC(=O)Cn4nc(C(F)F)c5c4C(F)(F)[C@@H]4C[C@H]54)nc4nc(NCCCC(F)(F)F)ccc4c3=O)c21` (atropisomer, axis not shown; (P)) [Example 31, N—((S)-1-((3P)-3-(4-chloro-1-methyl-3-(methylsulfonamido)-1H-indazol-7-yl)-4-oxo-7-((4,4,4-trifluorobutyl)amino)-3,4-dihydropyrido[2,3-d]pyrimidin-2-yl)-2-(3,5-difluorophenyl)ethyl)-2-((3bS,4aR)-3-(difluoromethyl)-5,5-difluoro-3b,4,4a,5-tetrahydro-1H-cyclopropa[3,4]cyclopenta[1,2-c]pyrazol-1-yl)acetamide], the EC50 in data set [1] was 0.11 nM. Also, the 50% cytotoxic concentration (CC50) at 4 days in data set [2] was over 100 nM.

The values above are taken from patent publication US20210395248A1, “INHIBITORS OF HUMAN IMMUNODEFICIENCY VIRUS REPLICATION” (ViiV HEALTHCARE UK (NO.5) LIMITED, priority 2018, published 2021).
